# Earlier results as cited in patent US12176087B2, “Pharmacogenomic decision support for modulators of the NMDA, glycine, and AMPA receptors” (THE REGENT OF THE UNIVERSITY OF MICHIGAN, priority 2019, dated 2024).
# Assays:
# TRD patients = conditions: phase III trial
# [1] = system: treatment-resistant depression (TRD) patients
SMILES,deaths reported (TRD patients),TRD patients who experienced severe dissociative effects (TRD patients; fraction of TRD patients),"TRD patients in the treatment arm with severe psychotomimetic effects including delirium, delusion and suicidal ideation, as well as suicide attempts (TRD patients; treatment arm, additional) [%]",TRD patients who do not remit after treatment ([1]; fraction of all TRD patients),TRD patients with rapid antidepressant response and concomitant elevated levels of glutamate in cortex ([1]; measured by MADRS total score)
CN[C@]1(c2ccccc2Cl)CCCCC1=O [Esketamine],2,a quarter,6.9,–,–
"CNC1(c2ccccc2Cl)CCCCC1=O (racemic) [Ketamine, RS-2-chlorophenyl-2-methylamino-cyclohexanone]",–,–,–,about half,approximately 50%
